Data on four molecules can be found in paper PMC7990037 (Nature cancer, 2020).

Structures can show the parent of a compound that is named as a salt.

The subject of one data set is CD14+ PBMCs. The data set can be described thus: Stimulation of CD14+ PBMCs with extracellular cGAMP. The class given is cell-based, human. As to conditions: soluble extracellular cGAMP, 16 h.
The test system of another data set is 4T1-luc tumors. Description: Established orthotopic 4T1-luc tumor growth with IR and cGAMP. The class given is in vivo, mouse.
Data set [1] in a line: Liver microsome stability, mouse. As to conditions: liver microsomes.
Data set [2] has as its system cGAMP exporter(s) in 293T cGAS ENPP1−/− cells. The data set can be described thus: Intracellular and extracellular cGAMP in 293T cGAS ENPP1−/− cells. As to conditions: 24 hours; STF-1084 10 μM; STF-1623 2 μM; QS1 in ENPP1 null cells.
Data set [3] can be described thus: Pharmacokinetics of STF-1084. As to conditions: in vivo.
Another data set has as its system epithelial cells MDCK. Description: MDCK permeability assay. The data set is classed as in vitro ADME.
Another data set addresses ENPP2 (Homo sapiens, UniProt Q13822). The data set can be described thus: ENPP2 inhibition assay. The class given is biochemical.
The next data set relates to Caco-2 monolayer. Description: Caco-2 permeability assay. The class given is in vitro ADME. As to conditions: Caco-2, apical to basolateral, 2 hours.
For a further data set, the system named is 4T1-luc cells. Description: Extracellular cGAMP measurement in cancer cell lines. The data set is classed as cell-based, mouse.
Data set [4] addresses T1, alkaline phosphatase (ALPL) (Homo sapiens, UniProt P05186).
T1 sequence (P05186 18-524): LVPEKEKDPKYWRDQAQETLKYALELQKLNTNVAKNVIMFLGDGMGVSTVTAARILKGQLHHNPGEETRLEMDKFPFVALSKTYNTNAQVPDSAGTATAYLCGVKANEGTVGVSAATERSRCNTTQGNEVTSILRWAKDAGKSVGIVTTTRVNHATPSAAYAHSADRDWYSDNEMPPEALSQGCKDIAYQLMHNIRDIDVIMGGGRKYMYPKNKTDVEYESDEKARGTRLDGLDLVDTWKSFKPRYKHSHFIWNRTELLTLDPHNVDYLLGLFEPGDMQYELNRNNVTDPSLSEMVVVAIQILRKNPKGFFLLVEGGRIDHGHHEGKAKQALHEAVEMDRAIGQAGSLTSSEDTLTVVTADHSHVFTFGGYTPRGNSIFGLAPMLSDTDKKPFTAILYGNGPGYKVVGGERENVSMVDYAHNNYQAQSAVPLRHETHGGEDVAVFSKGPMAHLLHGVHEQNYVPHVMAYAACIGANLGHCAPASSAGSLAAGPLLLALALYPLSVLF
Description: ALPL inhibition assay. The data set is classed as biochemical.

The nature of data set [5]: parallel artificial membrane permeability assay. The data set is classed as in vitro ADME. As to conditions: PAMPA, compared to high and low permeability controls.
Data set [6] in a line: Liver microsome stability, human. As to conditions: liver microsomes.
Data set [7] deals with primary human PBMCs. Description: PBMC toxicity. As to conditions: 16 h.
For a further data set, the target named is T2, purified mouse ENPP1 (Mus musculus, UniProt P06802).
T2 sequence (P06802 85-906 limits assumed): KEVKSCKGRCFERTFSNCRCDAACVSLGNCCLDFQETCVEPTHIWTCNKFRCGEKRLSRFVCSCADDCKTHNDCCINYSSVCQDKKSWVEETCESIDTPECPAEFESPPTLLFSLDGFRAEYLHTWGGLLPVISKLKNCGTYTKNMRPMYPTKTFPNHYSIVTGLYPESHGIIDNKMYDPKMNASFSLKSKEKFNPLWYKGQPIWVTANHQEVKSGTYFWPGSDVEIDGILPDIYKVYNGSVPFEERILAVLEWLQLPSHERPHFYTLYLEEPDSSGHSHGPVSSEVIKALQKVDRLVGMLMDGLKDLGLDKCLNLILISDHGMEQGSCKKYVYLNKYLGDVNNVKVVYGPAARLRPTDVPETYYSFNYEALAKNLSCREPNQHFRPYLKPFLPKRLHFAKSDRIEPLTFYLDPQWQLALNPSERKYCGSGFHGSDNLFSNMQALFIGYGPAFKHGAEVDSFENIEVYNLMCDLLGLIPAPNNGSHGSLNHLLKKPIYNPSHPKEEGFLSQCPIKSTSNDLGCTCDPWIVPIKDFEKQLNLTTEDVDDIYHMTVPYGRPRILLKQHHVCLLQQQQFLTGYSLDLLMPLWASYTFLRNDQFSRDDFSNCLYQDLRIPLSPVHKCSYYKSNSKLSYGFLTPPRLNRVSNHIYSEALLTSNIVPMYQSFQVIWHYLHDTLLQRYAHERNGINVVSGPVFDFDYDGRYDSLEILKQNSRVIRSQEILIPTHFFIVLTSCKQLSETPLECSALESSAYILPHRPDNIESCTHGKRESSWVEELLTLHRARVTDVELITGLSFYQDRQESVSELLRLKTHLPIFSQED
Description: 32P-cGAMP degradation TLC assay. The class given is biochemical.

The subject of another data set is Panc02 tumors. The data set can be described thus: Panc02 syngeneic subcutaneous pancreatic tumor model. The data set is classed as in vivo, mouse. As to conditions: subcutaneous pump, 50 mg/kg/day.
A short description of data set [8]: Pharmacokinetics of STF-1623 after subcutaneous injection. The class given is in vivo, mouse.
Data set [9] relates to primary human PBMCs. As to conditions: 200 nM cGAMP electroporated, 16 h; 50 μM STF-1084; 2 μM STF-1623.
Data set [10] concerns the target T3, human ENPP1 transfected into 293T cGAS ENPP1−/− cells (Homo sapiens, UniProt P22413).
T3 sequence (P22413 1-925): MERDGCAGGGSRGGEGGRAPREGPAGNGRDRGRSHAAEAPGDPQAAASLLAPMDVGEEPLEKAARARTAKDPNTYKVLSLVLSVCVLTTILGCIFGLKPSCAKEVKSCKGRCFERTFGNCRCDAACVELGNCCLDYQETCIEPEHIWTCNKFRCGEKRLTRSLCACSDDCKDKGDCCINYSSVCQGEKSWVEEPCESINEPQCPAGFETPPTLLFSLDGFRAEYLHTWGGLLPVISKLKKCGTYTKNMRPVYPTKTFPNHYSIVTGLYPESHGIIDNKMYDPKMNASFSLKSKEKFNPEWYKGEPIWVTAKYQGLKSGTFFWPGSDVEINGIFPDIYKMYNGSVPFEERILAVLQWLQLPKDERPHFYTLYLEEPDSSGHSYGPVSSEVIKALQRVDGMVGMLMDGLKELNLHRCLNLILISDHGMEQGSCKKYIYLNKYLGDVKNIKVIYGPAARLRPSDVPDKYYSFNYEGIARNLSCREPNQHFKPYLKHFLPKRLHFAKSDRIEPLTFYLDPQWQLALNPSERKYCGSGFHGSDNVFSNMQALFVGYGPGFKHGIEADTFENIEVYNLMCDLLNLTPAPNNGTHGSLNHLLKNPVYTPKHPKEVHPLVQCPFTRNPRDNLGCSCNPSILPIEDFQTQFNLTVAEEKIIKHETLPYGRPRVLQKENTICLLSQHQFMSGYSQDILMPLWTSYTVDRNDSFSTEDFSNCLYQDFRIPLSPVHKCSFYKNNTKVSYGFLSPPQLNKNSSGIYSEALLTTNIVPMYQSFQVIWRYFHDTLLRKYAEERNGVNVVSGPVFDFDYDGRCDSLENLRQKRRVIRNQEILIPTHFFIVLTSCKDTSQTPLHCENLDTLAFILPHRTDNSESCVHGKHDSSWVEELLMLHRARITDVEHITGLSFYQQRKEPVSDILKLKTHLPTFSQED
The data set can be described thus: cGAMP export assay in ENPP1-transfected cells. The class given is cell-based.

Take `Nc1nc2c(ncn2[C@@H]2O[C@@H]3COP(=O)(O)O[C@H]4[C@@H](O)[C@H](n5cnc6c(N)ncnc65)O[C@@H]4COP(=O)(O)O[C@@H]2[C@@H]3O)c(=O)[nH]1` [cGAMP, 2’3’-cyclic GMP-AMP]: the “cGAMP concentration to which CD14+ PBMCs respond by upregulating IFNB1” value in the data set with CD14+ PBMCs is listed as “submicromolar”. Further, the tumor free survival in the data set on 4T1-luc tumors (Enpp1−/− 4T1-luc tumors, IR (20 Gy) + three intratumoral injections of 10 μg cGAMP) is recorded as 3/11. For the same molecule, the survival result in the data set with 4T1-luc tumors (WT 4T1-luc tumors, IR (20 Gy) + three intratumoral injections of 10 μg cGAMP) is listed as “no mice inoculated with WT tumors survived”.

Consider `COc1cc2ncnc(N3CCC(CCP(=O)(O)O)CC3)c2cc1OC` [STF-1084, dimethyl (2-(1-(6,7-dimethoxyquinazolin-4-yl)piperidin-4-yl)ethyl)phosphonic acid hydrogen bromide salt], for which the half-life in data set [1] and in [6] was above 2.65 h throughout. In data set [2], the “effect on intracellular / extracellular cGAMP (cGAMP export)” value is listed as “no effect on intracellular cGAMP”. For the same molecule, in data set [3], the “pharmacokinetics (in words)” value is recorded as “fast pharmacokinetics”. Moreover, the permeability category entry (with epithelial cells MDCK; in the data set on Caco-2 monolayer; in data set [5]) was “impermeable” in each case. Further, the Ki is 5500 nM on ENPP2 and above 100000 nM in data set [4]. Also, in the data set on 4T1-luc cells (4T1-luc, 48 hours, serum-containing media, 50 μM STF-1084), the “extracellular cGAMP” value is recorded as 3,000,000 molecules/cell. For the same molecule, in the data set with 4T1-luc tumors (IR (20 Gy) + 10 μg cGAMP + 100 μL of 1 mM STF-1084 intratumoral on day 2, 4, 7), the tumor free survival was 1/10. Moreover, the “toxicity to PBMCs” value in the data set with primary human PBMCs [7] (100 μM) is “non-toxic”.

With `COc1cccc2c(N3CCC(CCP(=O)(O)O)CC3)ncnc12` [STF-1623, (2-(1-(8-methoxyquinazolin-4-yl)piperidin-4-yl)ethyl)phosphonic acid], the half-life in data set [1] and in data set [6] was above 2.65 h in each case. Moreover, the Ki at purified mouse ENPP1 was 16 nM. Further, in the data set on Panc02 tumors (day 0 to 8, IR (20 Gy) on day 1), the “tumor growth, combination with IR” value was “synergized with IR to delay tumor growth”. The “tumor growth, single agent” value in the data set on Panc02 tumors (day 0 to 8, no IR) was “delayed tumor growth as a single agent”. Moreover, in [2], the “effect on intracellular / extracellular cGAMP (cGAMP export)” value is on record as “affected only extracellular cGAMP concentrations”. Further, the permeability category result (in the data set on epithelial cells MDCK; in the data set with Caco-2 monolayer; in data set [5]) was “cell impermeable” each time. Besides, in [8] (mouse, plasma, sc, 300 mg/kg), the concentration at 24 h was above 100 nM. Also, the “pharmacokinetic profile (in words)” value in [8] (systemic dosing) was “improved pharmacokinetic profile compared to STF-1084”. In addition, in the data set on primary human PBMCs [9], the “cytokine production (IFNB1, CXCL10 mRNA) after cGAMP electroporation” value is on record as “no effect on cytokine production”. In addition, the IC50 in [10] was found to be 68 nM. The “toxicity to PBMCs” value with primary human PBMCs [7] is given as “not toxic”.

B1: mENPP1: purified soluble recombinant mouse ENPP1, cGAMP hydrolase (protein, UniProt P06802 80-906, looked up)
extracellular domain: KPSCAKEVKSCKGRCFERTFSNCRCDAACVSLGNCCLDFQETCVEPTHIWTCNKFRCGEKRLSRFVCSCADDCKTHNDCCINYSSVCQDKKSWVEETCESIDTPECPAEFESPPTLLFSLDGFRAEYLHTWGGLLPVISKLKNCGTYTKNMRPMYPTKTFPNHYSIVTGLYPESHGIIDNKMYDPKMNASFSLKSKEKFNPLWYKGQPIWVTANHQEVKSGTYFWPGSDVEIDGILPDIYKVYNGSVPFEERILAVLEWLQLPSHERPHFYTLYLEEPDSSGHSHGPVSSEVIKALQKVDRLVGMLMDGLKDLGLDKCLNLILISDHGMEQGSCKKYVYLNKYLGDVNNVKVVYGPAARLRPTDVPETYYSFNYEALAKNLSCREPNQHFRPYLKPFLPKRLHFAKSDRIEPLTFYLDPQWQLALNPSERKYCGSGFHGSDNLFSNMQALFIGYGPAFKHGAEVDSFENIEVYNLMCDLLGLIPAPNNGSHGSLNHLLKKPIYNPSHPKEEGFLSQCPIKSTSNDLGCTCDPWIVPIKDFEKQLNLTTEDVDDIYHMTVPYGRPRILLKQHHVCLLQQQQFLTGYSLDLLMPLWASYTFLRNDQFSRDDFSNCLYQDLRIPLSPVHKCSYYKSNSKLSYGFLTPPRLNRVSNHIYSEALLTSNIVPMYQSFQVIWHYLHDTLLQRYAHERNGINVVSGPVFDFDYDGRYDSLEILKQNSRVIRSQEILIPTHFFIVLTSCKQLSETPLECSALESSAYILPHRPDNIESCTHGKRESSWVEELLTLHRARVTDVELITGLSFYQDRQESVSELLRLKTHLPIFSQED
modifications: extracellular domain
For the molecule B1, in the data set on 4T1-luc cells (4T1-luc conditioned media incubated with 10 nM recombinant mENPP1 overnight), the “extracellular cGAMP signal” value is “abolished the cGAMP signal”.
